Data set [1] has as its system A549. In words: Cytotoxicity against human A549 after 72 hrs by SRB assay. The note with it: A549, 72 h. The data set is classed as functional, cell-based.
For data set [2], the target named is T1, DNA topoisomerase 1 (Homo sapiens) (UniProt P11387).
T1 sequence (whole entry): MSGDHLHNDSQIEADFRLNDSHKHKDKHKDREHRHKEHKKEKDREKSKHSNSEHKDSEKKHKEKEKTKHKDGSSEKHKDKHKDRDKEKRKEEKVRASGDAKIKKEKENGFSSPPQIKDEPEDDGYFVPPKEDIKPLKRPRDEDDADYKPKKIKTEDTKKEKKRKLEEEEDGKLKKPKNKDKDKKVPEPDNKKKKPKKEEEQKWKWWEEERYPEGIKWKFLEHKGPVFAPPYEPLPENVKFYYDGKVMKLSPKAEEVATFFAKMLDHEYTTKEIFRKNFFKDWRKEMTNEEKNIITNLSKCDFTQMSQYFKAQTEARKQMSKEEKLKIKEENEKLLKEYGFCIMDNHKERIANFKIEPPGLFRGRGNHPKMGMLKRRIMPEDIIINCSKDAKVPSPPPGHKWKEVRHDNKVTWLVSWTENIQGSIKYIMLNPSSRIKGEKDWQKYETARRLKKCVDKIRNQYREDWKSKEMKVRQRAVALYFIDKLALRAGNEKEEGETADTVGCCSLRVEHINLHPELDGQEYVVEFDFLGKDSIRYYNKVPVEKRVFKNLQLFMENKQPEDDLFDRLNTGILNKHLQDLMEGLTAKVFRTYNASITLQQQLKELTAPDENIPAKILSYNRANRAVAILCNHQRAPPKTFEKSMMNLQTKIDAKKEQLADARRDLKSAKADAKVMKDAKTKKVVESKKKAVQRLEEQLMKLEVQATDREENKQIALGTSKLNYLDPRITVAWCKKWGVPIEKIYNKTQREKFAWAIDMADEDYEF
In words: Inhibition of topo 1-mediated relaxation of supercoiled pBR322 at 10 to 100 uM after 30 mins using ethidium bromide by agarose-gel electrophoresis.

The subject of data set [3] is HCT-116. In words: Cytotoxicity against human HCT116 after 72 hrs by SRB assay. The note with it: HCT-116, 72 h. The class given is functional, cell-based.
Data set [4] in a line: Stability of the compound assessed as retention of lactone group at pH 7 after 8 hrs in presence of human serum albumin by HPLC analysis. The class given is ADME. The note with it: for Stability: buffer, pH 7, 8 h; for remaining at 8 h: human serum albumin solution, pH 7, read-out: Stability.
The nature of data set [5]: Stability of the compound assessed as retention of lactone group in phosphate buffer at pH 7 after 8 hrs by HPLC analysis. The data set is classed as physicochemical. The note with it: for Stability: buffer, pH 7, 8 h; for remaining at 8 h: phosphate buffer, pH 7, read-out: Stability.

Molecules are shown by their SMILES. pIC50: −log10 of the molar value. The source made the active and inactive calls. The calls are words filed in the database; no cut-off is given here.

As for `CC[C@]1(O)c2cc3n(c(=O)c2COC(=O)[C@@H]1OC(C)=O)Cc1cc2cc(OC)ccc2nc1-3`, the figures for the pIC50 in data set [1] and in data set [3] were 8.33 and 8.36, respectively. Moreover, the inhibition result in data set [2] is “Active”.
For `CC[C@]1(O)c2cc3n(c(=O)c2COC(=O)[C@@H]1O)Cc1cc2cc4c(cc2nc1-3)OCO4`, the pIC50 in data set [1] and in data set [3] was 8.51 each time. The inhibition entry in data set [2] was “Active”.
Regarding `CC[C@]1(O)c2cc3n(c(=O)c2COC(=O)[C@@H]1OC(C)=O)Cc1cc2ccccc2nc1-3`, the pIC50 was 7.31 in data set [1] and 7.85 in data set [3]. Besides, the inhibition result in data set [2] is “Active”. The Stability entry in data set [4] and in data set [5] was “Stable” in each case.
Regarding `CC[C@]1(O)c2cc3n(c(=O)c2COC(=O)[C@@H]1OC(C)=O)Cc1cc2cc4c(cc2nc1-3)OCCO4`, the values for the pIC50 in data set [1] and in data set [3] were 8.34 and 8.31, respectively. The inhibition result in data set [2] is “Active”. Further, the remaining at 8 h in data set [4] is 55%; in data set [5] it was 90%.
Regarding `CC[C@]1(O)c2cc3n(c(=O)c2COC(=O)[C@@H]1O)Cc1cc2ccccc2nc1-3`, the pIC50 in data set [1] was 7.77; in data set [3], 7.31. The inhibition entry in data set [2] is “Active”. The Stability entry in data set [4] and in data set [5] was “Stable” each time.
Consider `CC[C@]1(O)c2cc3n(c(=O)c2COC(=O)[C@@H]1O)Cc1cc2cc4c(cc2nc1-3)OCCO4`, for which the pIC50 in data set [1] was 8.54; in data set [3] it was 8.47. The inhibition result in data set [2] was “Active”.
On to `CC[C@@]1(O)C(=O)OCc2c1cc1n(c2=O)Cc2cc3ccccc3nc2-1` [CAMPTOTHECIN], for which the figures for the pIC50 in data set [1] and in data set [3] were 7.47 and 7.64, respectively. Also, the remaining at 8 h in data set [4] was 20%; in data set [5] it was less than 40%.
Regarding `CC[C@@]1(O)C(=O)OCc2c1cc1n(c2=O)Cc2cc3cc(O)ccc3nc2-1` [HYDROXYCAMPTOTHECIN], the figures for the pIC50 in data set [1] and in data set [3] were 7.47 and 7.51, respectively. Besides, the inhibition entry in data set [2] is “Active”.
In the case of `CCc1c2c(nc3ccc(O)cc13)-c1cc3c(c(=O)n1C2)COC(=O)[C@]3(O)CC`, the inhibition entry in data set [2] is “Active”.
As to `CC[C@]1(O)c2cc3n(c(=O)c2COC(=O)[C@@H]1OC(C)=O)Cc1cc2cc4c(cc2nc1-3)OCO4`, the pIC50 is 8.92 in data set [1] and 8.68 in data set [3]. The inhibition result in data set [2] is “Active”. For the same molecule, the Stability entry in data set [4] and in data set [5] was “Stable” throughout.
For `CC[C@]1(O)c2cc3n(c(=O)c2COC(=O)[C@@H]1O)Cc1cc2cc(OC)ccc2nc1-3`, the values for the pIC50 in data set [1] and in data set [3] were 8.32 and 7.97, respectively. Besides, the inhibition result in data set [2] is “Active”.

The term pIC50 denotes −log10 of the IC50, conventionally taken in molar units. Higher therefore signals a low IC50.
